Patent US20100035755A1, “METHOD OF CONTROLLING WEEDS IN A TURF GRASS BY USING SULFONYLUREA COMPOUNDS” (Moghu Research Center Ltd., priority 2008, published 2010)

How the values were obtained:
[1] = tested on: Digitaria sanguinalis; assay: Actual field condition test of Example 1 (golf course); type: in vivo; conditions: for efficacy in actual field condition: Digitaria sanguinalis (about 4-leaf stage), twenty days after application
Protocol: (§1) The test chemical of the Example 1 was applied to a turf grass field, in which Digitaria sanguinalis as a representative summer-time poaceae weed and Kyllinga brevifolia as a representative hard-to-control perennial cyperaceae weed are thriving predominantly, to evaluate weed control effect of the compound. The experiment was carried out from May to July, 2008 in the Dae-duk Research Park golf course (Doryong-dong, Yusong-gu, Daejon, South Korea). At the time of the chemical application, Digitaria sanguinalis was at about 4-leaf stage and Kyllinga brevifolia was at growth period.

[2] = tested on: Kyllinga brevifolia; assay: as above; type: in vivo; conditions: for efficacy in actual field condition: Kyllinga brevifolia (growth period), twenty days after application
Protocol: as §1

## Cc1cc(C)nc(NC(=O)NS(=O)(=O)c2ccccc2C(O)C(C)F)n1 (centres unmarked) [Example 1]
[1]; 50 g ai/ha
  efficacy in actual field condition: 80
[1]; 100 g ai/ha
  efficacy in actual field condition: 90
[1]; 200 g ai/ha
  efficacy in actual field condition: 100
[1]; Digitaria sanguinalis, 50 g ai/ha or more
  weed controlled in actual field: 80%
[2]; 50 g ai/ha
  efficacy in actual field condition: 100
[2]; 100 g ai/ha
  efficacy in actual field condition: 100
[2]; 200 g ai/ha
  efficacy in actual field condition: 100
[2]; Kyllinga brevifolia, 50 g ai/ha or more
  weed controlled in actual field: 100%
